From ChEMBL document CHEMBL5620406, “Synthesis and biological evaluation of novel pyrazole amides as potent mitochondrial complex I inhibitors” (Eur J Med Chem, 2023)
Active and inactive are the calls of the source. No cut-off for these calls is given here.

What was measured:
[1] = test system: NCM460; assay: Antiproliferative activity against human NCM460 cells assessed as inhibition of cell growth incubated for 96 hrs by MTT assay; type: functional, cell-based; details: NCM460, 96 h
[2] = species on record: Homo sapiens; assay: Inhibition of mitochondrial complex I (unknown origin) at 1 uM incubated for 15 mins by microplate reader analysis relative to control
[3] = test system: HCT-116; assay: Antiproliferative activity against human HCT-116 cells assessed as inhibition of cell growth at 0.1 nM incubated for 96 hrs in presence of galactose by MTT assay; type: functional, cell-based
[4] = test system: KG-1; assay: Antiproliferative activity against human KG-1 cells assessed as inhibition of cell growth at 0.1 nM incubated for 96 hrs in presence of galactose by MTT assay; type: functional, cell-based
[5] = test system: HCT-116; assay: Induction of mitochondrial dysfunction in human HCT-116 cells assessed as attenuation of oxygen consumption rate incubated for 24 hrs by Seahorse XFe24 analyzer; type: functional, cell-based; details: dose 2-10 nM
[6] = test system: HCT-116; assay: Induction of mitochondrial dysfunction in human HCT-116 cells assessed as attenuation of oxygen consumption rate at 2 nM incubated for 24 hrs by Seahorse XFe24 analyzer; type: functional, cell-based
[7] = test system: HCT-116; assay: Induction of mitochondrial dysfunction in human HCT-116 cells assessed as attenuation of oxygen consumption rate at 10 nM incubated for 24 hrs by Seahorse XFe24 analyzer; type: functional, cell-based
[8] = test system: HCT-116; assay: Induction of mitochondrial dysfunction in human HCT-116 cells assessed as increase in extracellular acidification rate at 2 to 10 nM incubated for 24 hrs by Seahorse XFe24 analyzer; type: functional, cell-based; details: dose 2-10 nM
[9] = test system: HCT-116; assay: Induction of mitochondrial dysfunction in human HCT-116 cells assessed as inhibition of OXPHOS at 2 to 10 nM incubated for 24 hrs by Seahorse XFe24 analyzer; type: functional, cell-based; details: dose 2-10 nM
[10] = test system: HCT-116; assay: Induction of ROS generation in human HCT-116 cells measured for 30 mins by DCFDA-staining based flow cytometry analysis; type: functional, cell-based; details: dose <= 0.5 nM
[11] = test system: KG-1; assay: Induction of ROS generation in human KG-1 cells measured for 30 mins by DCFDA-staining based flow cytometry analysis; type: functional, cell-based; details: dose <= 0.5 nM
[12] = test system: KG-1; assay: Induction of ROS generation in human KG-1 cells at 1 nM measured for 30 mins by DCFDA-staining based flow cytometry analysis; type: functional, cell-based
[13] = test system: HCT-116; assay: Induction of mitochondrial membrane potential depolarization in human HCT-116 cells at 2 nM incubated for 24 hrs by JC-1 staining based flow cytometry analysis; type: functional
[14] = Acute toxicity in BALB/c mouse assessed as decrease in body weight at 40 mg/kg, ip measured for 24 hrs; type: organism-based; details: in vivo
[15] = Acute toxicity in BALB/c mouse assessed as decrease in body weight at 68 mg/kg, ip measured for 6 days; type: organism-based; details: in vivo, 144 h, time 6 day
[16] = Acute toxicity in BALB/c mouse assessed as effect on TP level at 68 mg/kg, ip measured on day 14; type: organism-based; details: in vivo, 336 h, time 14 day
[17] = Acute toxicity in BALB/c mouse assessed as effect on ALB level at 68 mg/kg, ip measured on day 14; type: organism-based; details: in vivo, 336 h, time 14 day
[18] = Acute toxicity in BALB/c mouse assessed as effect on BUN level at 68 mg/kg, ip measured on day 14; type: organism-based; details: in vivo, 336 h, time 14 day
[19] = Acute toxicity in BALB/c mouse assessed as effect on NEUT level at 68 mg/kg, ip measured on day 14; type: organism-based; details: in vivo, 336 h, time 14 day
[20] = Acute toxicity in BALB/c mouse assessed as liver damage at 40 to 68 mg/kg, ip measured on day 14 by H and E staining based analysis; type: organism-based; details: in vivo, 336 h, dose 40-68 mg/kg, time 14 day
[21] = Acute toxicity in BALB/c mouse assessed as spleen damage at 40 to 68 mg/kg, ip measured on day 14 by H and E staining based analysis; type: organism-based; details: in vivo, 336 h, dose 40-68 mg/kg, time 14 day
[22] = Acute toxicity in BALB/c mouse assessed as kidney damage at 40 to 68 mg/kg, ip measured on day 14 by H and E staining based analysis; type: organism-based; details: in vivo, 336 h, dose 40-68 mg/kg, time 14 day
[23] = Acute toxicity in BALB/c mouse assessed as animal death at 116 mg/kg, ip measured on day 14; type: organism-based; details: in vivo, time 14 day, read-out: Activity
[24] = Acute toxicity in ip dosed BALB/c mouse assessed as maximum tolerated dose measured on day 14; type: organism-based; details: in vivo, time 14 day
[25] = Toxicity in NOD-SCID mouse xenografted with human KG-1 cells assessed as change in body weight at 5 mg/kg, ip qd administered 5 consecutive days per week for 24 days; type: organism-based; details: in vivo, 576 h, time 24 day
[26] = Toxicity in NOD-SCID mouse xenografted with human KG-1 cells assessed as effect on ALT level at 5 mg/kg, ip qd administered 5 consecutive days per week for 24 days; type: organism-based; details: in vivo, 576 h, time 24 day
[27] = Toxicity in NOD-SCID mouse xenografted with human KG-1 cells assessed as effect on CHO2 level at 5 mg/kg, ip qd administered 5 consecutive days per week for 24 days; type: organism-based; details: in vivo, 576 h, time 24 day
[28] = Toxicity in NOD-SCID mouse xenografted with human KG-1 cells assessed as effect on GLU level at 5 mg/kg, ip qd administered 5 consecutive days per week for 24 days; type: organism-based; details: in vivo, 576 h, time 24 day
[29] = Toxicity in NOD-SCID mouse xenografted with human KG-1 cells assessed as effect on TRIGL level at 5 mg/kg, ip qd administered 5 consecutive days per week for 24 days; type: organism-based; details: in vivo, 576 h, time 24 day
[30] = Toxicity in NOD-SCID mouse xenografted with human KG-1 cells assessed as effect on lymphocyte count at 5 mg/kg, ip qd administered 5 consecutive days per week for 24 days; type: organism-based; details: in vivo, 576 h, time 24 day
[31] = Toxicity in NOD-SCID mouse xenografted with human KG-1 cells assessed as effect on RBC count at 5 mg/kg, ip qd administered 5 consecutive days per week for 24 days; type: organism-based, Erythrocyte; details: in vivo, 576 h, time 24 day
[32] = Toxicity in NOD-SCID mouse xenografted with human KG-1 cells assessed as effect on hematocrit level at 5 mg/kg, ip qd administered 5 consecutive days per week for 24 days; type: organism-based; details: in vivo, 576 h, time 24 day
[33] = Toxicity in NOD-SCID mouse xenografted with human KG-1 cells assessed as effect on MCH level at 5 mg/kg, ip qd administered 5 consecutive days per week for 24 days; type: organism-based; details: in vivo, 576 h, time 24 day
[34] = Toxicity in NOD-SCID mouse xenografted with human KG-1 cells assessed as effect on MCHC level at 5 mg/kg, ip qd administered 5 consecutive days per week for 24 days; type: organism-based; details: in vivo, 576 h, time 24 day
[35] = Toxicity in NOD-SCID mouse xenografted with human KG-1 cells assessed as effect on MPV at 5 mg/kg, ip qd administered 5 consecutive days per week for 24 days; type: organism-based; details: in vivo, 576 h, time 24 day
[36] = Toxicity in NOD-SCID mouse xenografted with human KG-1 cells assessed as effect on lung damage at 5 mg/kg, ip qd administered 5 consecutive days per week for 24 days by H and E staining based analysis; type: organism-based; details: in vivo, 576 h, time 24 day
[37] = Efflux ratio of apparent permeability across basolateral to apical membrane to apical to basolateral membrane in human Caco-2 cells incubated for 120 mins by LC-MS/MS analysis; type: ADME, cell-based
[38] = target: Cytochrome P450 2C9 (Homo sapiens, UniProt P11712); assay: Inhibition of CYP2C9 in human liver microsomes incubated for 10 mins in presence of NADPH by LC/MS/MS analysis; type: ADME, Microsome
Sequence of Cytochrome P450 2C9 (P11712 whole entry): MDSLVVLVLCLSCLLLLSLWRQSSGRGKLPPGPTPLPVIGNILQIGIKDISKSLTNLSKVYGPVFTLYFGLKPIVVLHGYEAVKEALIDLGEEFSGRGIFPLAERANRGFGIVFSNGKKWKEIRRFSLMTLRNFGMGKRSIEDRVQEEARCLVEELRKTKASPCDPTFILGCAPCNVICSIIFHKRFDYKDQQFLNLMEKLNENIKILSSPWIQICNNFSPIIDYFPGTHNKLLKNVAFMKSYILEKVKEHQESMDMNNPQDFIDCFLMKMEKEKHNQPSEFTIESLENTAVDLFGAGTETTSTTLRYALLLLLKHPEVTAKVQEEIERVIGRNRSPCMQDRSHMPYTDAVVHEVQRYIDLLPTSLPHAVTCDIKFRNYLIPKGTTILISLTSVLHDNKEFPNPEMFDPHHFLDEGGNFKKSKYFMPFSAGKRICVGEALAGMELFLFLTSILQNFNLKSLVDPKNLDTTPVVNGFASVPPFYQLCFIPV

SMILES	IC50 [1] [µM]	inhibition [2] [%]	Activity [3]	Activity [4]	Activity [5]	Activity [6]	Activity [7]	Activity [8]	Activity [9]	Activity [10]	Activity [11]	Activity [12]	Activity [13] [%]	Activity [14]	Activity [15]	Activity [16]	Activity [17]	Activity [18]	Activity [19]	Activity [20]	further results
Cc1cc(C(=O)Nc2ccc(OC(F)(F)F)cc2)nn1Cc1cccc(N2CCN(C(=O)C3CC3)CC2)c1	> 1	48.6	Active	Active	Dose-Dependent Effect	Active	Active	Active	Active	Dose-Dependent Effect	Dose-Dependent Effect	Active	34.3	Non-Toxic	Non-Toxic	Non-Toxic	Non-Toxic	Non-Toxic	Non-Toxic	Non-Toxic	Activity [21]: Non-Toxic; Activity [22]: Non-Toxic; mortality at 336 h [23]: 33.3%; MTD at 336 h [24]: ~6 mg/kg; Activity [25]: Non-Toxic; Activity [26]: Non-Toxic; Activity [27]: Non-Toxic; Activity [28]: Non-Toxic; Activity [29]: Non-Toxic; Activity [30]: Non-Toxic; Activity [31]: Non-Toxic; Activity [32]: Non-Toxic; Activity [33]: Non-Toxic; Activity [34]: Non-Toxic; Activity [35]: Non-Toxic; Activity [36]: Non-Toxic; efflux ratio at 2 h [37]: 0.57; IC50 [38]: 1.83 µM
Cc1cc(C(=O)Nc2ccc(C(F)(F)F)cc2)nn1Cc1cccc(N2CCN(C(=O)C3CC3)CC2)c1	> 1	55.4	Active	Active	Dose-Dependent Effect	Active	Active	Active	Active	Dose-Dependent Effect	Dose-Dependent Effect	Active	26.5	Non-Toxic	Non-Toxic	Non-Toxic	Non-Toxic	Non-Toxic	Non-Toxic	Non-Toxic	Activity [21]: Non-Toxic; Activity [22]: Non-Toxic; mortality at 336 h [23]: 33.3%; MTD at 336 h [24]: ~6 mg/kg; Activity [25]: Non-Toxic; Activity [26]: Non-Toxic; Activity [27]: Non-Toxic; Activity [28]: Non-Toxic; Activity [29]: Non-Toxic; Activity [30]: Non-Toxic; Activity [31]: Non-Toxic; Activity [32]: Non-Toxic; Activity [33]: Non-Toxic; Activity [34]: Non-Toxic; Activity [35]: Non-Toxic; Activity [36]: Non-Toxic; efflux ratio at 2 h [37]: 0.53; IC50 [38]: 1.01 µM
